In article PMC3692398 (Biochemical pharmacology, 2013):
Like-named read-outs stand apart in the source and are kept apart here.

Key:
h5-HT2A receptor [1] = target: T1, h5-HT2A receptor (Homo sapiens, UniProt P28223); conditions: data not shown
hSigma1 receptor = hSigma1 receptor (Homo sapiens, UniProt Q99720); assay: [3H]; assay type: binding; conditions: Inhibition of [3H]pentazocine binding Ki ± sem, hSigma1
[2] = blood from heart, periphery, and femoral veins; postmortem cases; ref [32];[33];[34]; cited from earlier work
hSERT [3] = target: T2, hSERT (Homo sapiens, UniProt P31645); assay: Superfusion release of preloaded [3H]5-HT from HEK-hSERT cells; assay type: cell-based
T2 sequence (P31645 whole entry, the tested form may be a part): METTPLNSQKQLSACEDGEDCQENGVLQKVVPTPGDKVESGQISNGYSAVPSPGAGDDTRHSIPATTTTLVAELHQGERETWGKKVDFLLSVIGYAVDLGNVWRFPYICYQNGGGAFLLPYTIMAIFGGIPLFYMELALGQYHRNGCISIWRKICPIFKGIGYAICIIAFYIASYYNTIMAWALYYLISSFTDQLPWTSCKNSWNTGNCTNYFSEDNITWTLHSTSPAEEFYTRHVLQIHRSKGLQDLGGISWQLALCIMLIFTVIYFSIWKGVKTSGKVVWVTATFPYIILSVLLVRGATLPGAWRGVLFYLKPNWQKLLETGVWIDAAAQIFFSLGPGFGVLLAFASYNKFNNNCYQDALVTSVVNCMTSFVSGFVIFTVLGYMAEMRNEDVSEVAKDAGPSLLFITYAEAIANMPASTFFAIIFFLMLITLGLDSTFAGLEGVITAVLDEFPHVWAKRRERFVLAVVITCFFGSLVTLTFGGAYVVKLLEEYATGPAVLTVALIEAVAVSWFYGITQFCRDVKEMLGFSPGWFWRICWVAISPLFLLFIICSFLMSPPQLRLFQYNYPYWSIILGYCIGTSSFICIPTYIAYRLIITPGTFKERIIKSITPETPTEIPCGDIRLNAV

hVMAT2 [4] = target: T3, hVMAT2 (Homo sapiens, UniProt Q05940); assay: Inhibition of [3H]5-HT uptake, HEK-hVMAT2 membrane preparation; assay type: biochemical
T3 sequence (Q05940 whole entry): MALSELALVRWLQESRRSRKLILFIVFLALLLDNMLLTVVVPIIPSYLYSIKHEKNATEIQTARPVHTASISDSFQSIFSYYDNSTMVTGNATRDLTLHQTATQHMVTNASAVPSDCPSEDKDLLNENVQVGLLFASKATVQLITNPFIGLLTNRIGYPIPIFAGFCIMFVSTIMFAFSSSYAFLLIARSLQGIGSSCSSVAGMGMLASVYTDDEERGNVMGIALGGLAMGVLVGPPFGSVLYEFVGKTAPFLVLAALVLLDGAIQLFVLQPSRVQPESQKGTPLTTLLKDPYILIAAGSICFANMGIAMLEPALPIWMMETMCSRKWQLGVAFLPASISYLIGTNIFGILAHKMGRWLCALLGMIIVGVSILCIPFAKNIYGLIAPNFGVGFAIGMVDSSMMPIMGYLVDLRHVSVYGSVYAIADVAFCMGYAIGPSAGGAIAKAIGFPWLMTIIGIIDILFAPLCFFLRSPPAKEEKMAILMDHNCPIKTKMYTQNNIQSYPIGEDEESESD

h5-HT2C receptor [5] = target: T4, h5-HT2C receptor (Homo sapiens, UniProt P28335); assay: Inhibition of 5-HT-stimulated IP-1 formation; assay type: cell-based; conditions: for h5-HT2C Inhibition of 5-HT-stimulated IP-1 formation % maximum inhibition ± sem: 100 nM 5-HT, normalized to maximal inhibition by SB242084 (1 µM)
T4 sequence (P28335 33-458): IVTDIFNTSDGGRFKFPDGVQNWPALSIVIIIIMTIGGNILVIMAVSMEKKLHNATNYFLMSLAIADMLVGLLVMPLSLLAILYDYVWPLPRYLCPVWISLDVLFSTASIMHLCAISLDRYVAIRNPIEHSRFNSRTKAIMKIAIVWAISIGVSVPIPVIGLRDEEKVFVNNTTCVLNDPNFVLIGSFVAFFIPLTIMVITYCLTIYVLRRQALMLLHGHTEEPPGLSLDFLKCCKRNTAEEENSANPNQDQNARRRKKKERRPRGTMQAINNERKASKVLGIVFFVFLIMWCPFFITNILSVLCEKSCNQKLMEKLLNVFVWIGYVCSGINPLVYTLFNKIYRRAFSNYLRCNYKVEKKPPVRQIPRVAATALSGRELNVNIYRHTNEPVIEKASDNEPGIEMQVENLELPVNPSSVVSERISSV

h5-HT2A receptor [6] = target: T1, h5-HT2A receptor; assay: Inhibition of 5-HT-stimulated IP-1 formation; assay type: cell-based; conditions: for h5-HT2A Inhibition of 5-HT-stimulated IP-1 formation % maximum inhibition ± sem: 100 nM 5-HT, normalized to maximal inhibition by ketanserin (10 µM)
h5-HT2C receptor [7] = target: T4, h5-HT2C receptor; assay: biochemical; assay type: binding
hNET [8] = target: T5, hNET (Homo sapiens, UniProt P23975); assay: biochemical; assay type: binding
T5 sequence (P23975 whole entry): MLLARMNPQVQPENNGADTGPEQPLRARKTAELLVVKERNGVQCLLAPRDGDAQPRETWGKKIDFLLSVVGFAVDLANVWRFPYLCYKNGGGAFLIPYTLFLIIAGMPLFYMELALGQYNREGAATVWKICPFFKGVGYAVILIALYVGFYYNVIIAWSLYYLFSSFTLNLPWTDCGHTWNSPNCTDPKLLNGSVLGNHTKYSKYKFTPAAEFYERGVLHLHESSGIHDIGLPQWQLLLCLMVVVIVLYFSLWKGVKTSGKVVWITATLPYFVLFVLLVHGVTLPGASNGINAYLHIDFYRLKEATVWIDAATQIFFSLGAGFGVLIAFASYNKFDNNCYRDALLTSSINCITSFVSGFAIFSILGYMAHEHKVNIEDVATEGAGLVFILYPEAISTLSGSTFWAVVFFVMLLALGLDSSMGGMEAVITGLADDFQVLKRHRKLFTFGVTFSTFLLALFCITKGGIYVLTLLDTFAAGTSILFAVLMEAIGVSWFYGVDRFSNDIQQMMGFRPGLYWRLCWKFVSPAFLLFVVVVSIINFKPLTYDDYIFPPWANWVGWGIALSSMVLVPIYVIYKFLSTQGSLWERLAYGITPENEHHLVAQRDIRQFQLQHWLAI

h5-HT1A receptor [9] = target: T6, h5-HT1A receptor (Homo sapiens, UniProt P08908); assay: Stimulation of [35S]GTPγS binding, HEK-h5-HT1A membranes; assay type: biochemical; conditions: for Emax: read-out: h5-HT1A Stimulation of [35S]GTPγS binding % maximum stimulation ± sem
T6 sequence (P08908 1-422): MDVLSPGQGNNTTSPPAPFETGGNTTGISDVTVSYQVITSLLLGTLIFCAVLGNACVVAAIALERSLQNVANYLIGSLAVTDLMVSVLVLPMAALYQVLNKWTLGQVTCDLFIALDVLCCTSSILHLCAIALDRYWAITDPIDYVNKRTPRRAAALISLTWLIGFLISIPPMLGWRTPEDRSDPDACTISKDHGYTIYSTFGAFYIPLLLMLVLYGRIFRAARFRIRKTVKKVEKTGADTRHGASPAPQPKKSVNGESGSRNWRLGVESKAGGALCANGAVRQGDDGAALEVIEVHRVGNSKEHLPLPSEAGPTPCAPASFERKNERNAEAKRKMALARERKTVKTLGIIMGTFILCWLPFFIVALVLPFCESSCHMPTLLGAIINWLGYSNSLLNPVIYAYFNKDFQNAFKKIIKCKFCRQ

h5-HT2A receptor [10] = target: T1, h5-HT2A receptor; assay: [125I]DOI binding, HEK-h5-HT2A
hNET [11] = target: T5, hNET; assay: Superfusion release of preloaded [3H]NE from HEK-hNET cells; assay type: cell-based; conditions: for % maximum release ± sem, hNET [3H]NE: relative to maximal AUC induced by METH (0.3 or 1 µM)
hVMAT2 [12] = target: T3, hVMAT2; assay: Superfusion release of preloaded [3H]NE from HEK-hVMAT2 cells; assay type: cell-based
hSERT [13] = target: T2, hSERT; assay: Inhibition of [125I]RTI-55 binding, HEK-hSERT membranes
h5-HT1A receptor [14] = target: T6, h5-HT1A receptor; assay: [3H]8-OH-DPAT binding, HEK-h5-HT1A
hDAT [15] = target: T7, hDAT (Homo sapiens, UniProt Q01959); assay: Inhibition of [125I]RTI-55 binding, HEK-hDAT membranes
T7 sequence (Q01959 whole entry, the tested form may be a part): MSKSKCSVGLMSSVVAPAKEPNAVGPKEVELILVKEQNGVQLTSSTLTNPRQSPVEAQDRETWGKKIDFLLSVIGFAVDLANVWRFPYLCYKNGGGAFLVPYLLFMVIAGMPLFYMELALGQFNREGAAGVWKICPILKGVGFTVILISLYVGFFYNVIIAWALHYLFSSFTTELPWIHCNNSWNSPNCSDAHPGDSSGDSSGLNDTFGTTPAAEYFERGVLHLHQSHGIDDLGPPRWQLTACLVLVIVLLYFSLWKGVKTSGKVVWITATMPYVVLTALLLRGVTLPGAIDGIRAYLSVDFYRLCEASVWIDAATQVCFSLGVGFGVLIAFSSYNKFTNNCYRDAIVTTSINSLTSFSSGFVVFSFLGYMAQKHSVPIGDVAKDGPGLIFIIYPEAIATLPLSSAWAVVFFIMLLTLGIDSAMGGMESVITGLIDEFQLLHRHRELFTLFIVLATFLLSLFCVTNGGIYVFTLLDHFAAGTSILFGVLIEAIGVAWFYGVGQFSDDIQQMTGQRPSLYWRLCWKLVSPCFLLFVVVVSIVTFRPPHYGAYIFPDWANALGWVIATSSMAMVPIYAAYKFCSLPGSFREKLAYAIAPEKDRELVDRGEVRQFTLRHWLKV

hDAT [16] = target: T7, hDAT; assay: Superfusion release of preloaded [3H]DA from HEK-hDAT cells; assay type: cell-based; conditions: for time of peak/maximal [3H]DA release after addition of drug: 4-FMC 10 µM to 300 µM, mephedrone 30 µM, methylone 100 µM
hNET [17] = target: T5, hNET; assay: cell-based; assay type: cell-based
hVMAT2 [18] = target: T3, hVMAT2; assay: Inhibition of [3H]DHTB binding, HEK-hVMAT2 membranes
hDAT [19] = target: T7, hDAT; assay: Inhibition of [3H]DA uptake, intact HEK-hDAT cells; assay type: cell-based
hSERT [20] = target: T2, hSERT; assay: Inhibition of [3H]5-HT uptake, intact HEK-hSERT cells; assay type: cell-based
human DA D2 receptor = human DA D2 receptor (Homo sapiens, UniProt P14416); assay type: binding
Sequence of human DA D2 receptor (P14416 whole entry): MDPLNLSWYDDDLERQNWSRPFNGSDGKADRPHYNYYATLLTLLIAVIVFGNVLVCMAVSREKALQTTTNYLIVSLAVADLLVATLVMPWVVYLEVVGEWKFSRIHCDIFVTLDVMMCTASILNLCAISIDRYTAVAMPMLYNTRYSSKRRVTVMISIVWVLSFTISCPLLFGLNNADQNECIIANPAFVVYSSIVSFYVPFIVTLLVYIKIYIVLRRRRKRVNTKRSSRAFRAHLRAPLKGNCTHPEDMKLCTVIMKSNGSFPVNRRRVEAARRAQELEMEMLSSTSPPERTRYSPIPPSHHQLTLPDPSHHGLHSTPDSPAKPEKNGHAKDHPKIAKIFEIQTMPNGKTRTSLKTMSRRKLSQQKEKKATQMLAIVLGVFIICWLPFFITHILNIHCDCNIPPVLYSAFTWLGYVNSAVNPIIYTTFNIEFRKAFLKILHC

T1 sequence (P28223 whole entry): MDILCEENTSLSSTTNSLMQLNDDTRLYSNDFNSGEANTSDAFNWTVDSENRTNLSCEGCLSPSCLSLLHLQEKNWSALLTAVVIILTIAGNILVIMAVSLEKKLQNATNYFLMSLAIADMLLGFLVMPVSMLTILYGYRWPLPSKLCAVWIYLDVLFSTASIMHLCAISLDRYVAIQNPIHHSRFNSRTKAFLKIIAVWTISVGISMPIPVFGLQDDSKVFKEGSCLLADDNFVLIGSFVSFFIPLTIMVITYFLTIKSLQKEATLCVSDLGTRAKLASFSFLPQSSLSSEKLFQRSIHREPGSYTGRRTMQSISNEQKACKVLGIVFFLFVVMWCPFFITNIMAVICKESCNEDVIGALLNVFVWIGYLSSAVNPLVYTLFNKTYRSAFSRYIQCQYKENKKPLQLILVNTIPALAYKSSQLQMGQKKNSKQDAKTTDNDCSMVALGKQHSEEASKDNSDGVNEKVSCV
Sequence of hSigma1 receptor (Q99720 whole entry): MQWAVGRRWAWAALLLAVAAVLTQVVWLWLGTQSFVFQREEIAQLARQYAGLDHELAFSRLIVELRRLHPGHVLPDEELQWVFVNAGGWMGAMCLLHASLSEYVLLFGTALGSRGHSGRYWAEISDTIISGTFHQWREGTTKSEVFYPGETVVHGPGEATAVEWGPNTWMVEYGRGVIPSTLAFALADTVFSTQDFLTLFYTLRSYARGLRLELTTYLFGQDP

| Structure (SMILES) | h5-HT2A agonist activity, inositol monophosphate (h5-HT2A receptor [1]) | Ki (hSigma1 receptor) [µM] | postmortem blood concentration [2] [mg/L] | postmortem blood concentration (molar) [2] [µM] | % maximum release ± sem, hSERT [3H]5-HT (hSERT [3]) [%] | EC50 (hSERT [3]) [µM] | time of peak [3H]5-HT release after addition of drug (hSERT [3]) | IC50 (hVMAT2 [4]) [µM] | IC50 (h5-HT2C receptor [5]) [µM] | h5-HT2C Inhibition of 5-HT-stimulated IP-1 formation % maximum inhibition ± sem (h5-HT2C receptor [5]) [%] | h5-HT2A Inhibition of 5-HT-stimulated IP-1 formation % maximum inhibition ± sem (h5-HT2A receptor [6]) [%] | Ki (h5-HT2C receptor [7]) [µM] | Ki (hNET [8]) [µM] | EC50 (h5-HT1A receptor [9]) [µM] | Emax (h5-HT1A receptor [9]) [%] | EC50 (hNET [11]) [µM] | time of peak [3H]NE release after addition of drug (hNET [11]) [min] | Ki (hSERT [13]) [µM] | IC50 (hNET [17]) [µM] | IC50 (hSERT [20]) [µM] | further results |
| --- | --- | --- | --- | --- | --- | --- | --- | --- | --- | --- | --- | --- | --- | --- | --- | --- | --- | --- | --- | --- | --- |
| CCN(CC)C(=O)[C@@H]1C=C2c3cccc4[nH]cc(c34)C[C@H]2N(C)C1 [LSD, lysergic acid diethylamide] | full agonists with potencies in the low nanomolar range |  |  |  |  |  |  |  |  |  |  |  |  |  |  |  |  |  |  |  |  |
| CNC(C)C(=O)c1ccc2c(c1)OCO2 (stereo not shown) [Methylone, 3,4-methylenedioxy-N-methylcathinone] |  | 25.5 ± 7.7 | 0.06 to 3.3 | 0.25 to 14 | 78 ± 18 | 6.7 ± 2.78 | about 6 min | > 100 | > 1000 | 28.0 ± 7.5 | 84.7 ± 5.2 | 10.6 ± 1.8 | 16.5 ± 4.9 | 143 ± 32 | 47 | 0.426 ± 0.067 | 8 to 16 | 95.5 ± 4.3 | 0.234 ± 0.055 | 1.92 ± 0.35 | IC50 (h5-HT2A receptor [6]): 159 ± 11 µM; Ki (h5-HT2A receptor [10]): 48.5 ± 8 µM; % maximum release ± sem, hNET [3H]NE (hNET [11]): 122 ± 32%; EC50 (hVMAT2 [12]): > 100 µM; Release of [3H]NE % maximum release ± sem or range, hVMAT2 (hVMAT2 [12]): 21.8 ± 8.5%; Release of [3H]NE % maximum release ± sem or range, hVMAT2 (hVMAT2 [12]; listed as methylone): less than 35%; Ki (h5-HT1A receptor [14]): 63.3 ± 0.98 µM; Ki (hDAT [15]): 5.02 ± 0.29 µM; % maximum release ± sem, hDAT [3H]DA (hDAT [16]): 41 ± 12%; EC50 (hDAT [16]): 11.8 ± 5.6 µM; time of peak/maximal [3H]DA release after addition of drug (hDAT [16]): ≤ 6 min; fold less potent than METH to induce [3H]DA release (hDAT [16]; EC50 compared to METH): 30 fold; % maximum release ± sem, hDAT [3H]DA (hDAT [16]; listed as methylone): 41%; ratio of binding Ki to uptake IC50, hNET (hNET [17]; [125I]RTI-55 Ki / [3H]NE uptake IC50): 71; Ki (hVMAT2 [18]): > 1000 µM; IC50 (hDAT [19]): 0.343 ± 0.024 µM; ratio of binding Ki to uptake IC50, hDAT (hDAT [19]; [125I]RTI-55 Ki / [3H]DA uptake IC50): 15; ratio of binding Ki to uptake IC50, hSERT (hSERT [20]; [125I]RTI-55 Ki / [3H]5-HT uptake IC50): 50 |
| CNC(C)C(=O)c1ccc(C)cc1 (stereo not shown) [Mephedrone, 4-methyl-N-methylcathinone] |  | 7.8 ± 2 | 0.06 to 3.3 | 0.25 to 14 | 53 ± 13 | 11.9 ± 4.9 | about 6 min | 116 ± 8.8 | > 440 | 66.3 ± 8.4 | 98.7 ± 1.3 | 9.1 ± 2.1 | 11.8 ± 4 | 126 ± 29 | 44 | 0.41 ± 0.13 | 8 to 16 | 21 ± 4.8 | 0.0536 ± 0.0087 | 0.51 ± 0.15 | % maximum release ± sem, hNET [3H]NE (hNET [11]): 152 ± 32%; EC50 (hVMAT2 [12]): 66 ± 23 µM; Release of [3H]NE % maximum release ± sem or range, hVMAT2 (hVMAT2 [12]): 33.1 ± 1.9%; Ki (h5-HT1A receptor [14]): > 91 µM; Ki (hDAT [15]): 4.8 ± 0.75 µM; % maximum release ± sem, hDAT [3H]DA (hDAT [16]): 68 ± 11%; EC50 (hDAT [16]): 1.19 ± 0.34 µM; time of peak/maximal [3H]DA release after addition of drug (hDAT [16]): 8 min; Ki (hVMAT2 [18]): > 1000 µM; IC50 (hDAT [19]): 0.098 ± 0.027 µM |
| OC1(c2ccc(Cl)cc2)c2ccccc2C2=NCCN21 (stereo not shown) [Mazindol, reference compound] |  |  |  |  |  |  |  |  |  |  |  |  | 0.0054 ± 0.0016 |  |  |  |  | 0.026 ± 0.012 | 0.00185 ± 0.00049 | 0.0307 ± 0.0055 |  |
| NCCc1c[nH]c2ccc(O)cc12 [5-HT, 5-hydroxy-tryptamine] | full agonists with potencies in the low nanomolar range |  |  |  |  |  |  |  |  |  |  |  |  |  |  |  |  |  |  |  |  |
| CC(C)(C)[C@]1(O)CCN2C[C@H]3c4ccccc4CCc4cccc(c43)[C@@H]2C1 [butaclamol] |  |  |  |  |  |  |  |  |  |  |  |  |  |  |  |  |  |  |  |  | affinity for the [3H]YM-09151-2 binding site, DA D2 receptor (human DA D2 receptor): subnanomolar |
